Test results reported in patent US20060079497A1, “Lavendamycin analogues and methods of synthesizing and using lavendamycin analogues” (Ball State University, priority 2004, published 2006).
Where “and” joins values, the source holds several entries; their conditions need not be identical. Equal entries are not always repeated. Where two headings read alike, the source gives them in different places.

Columns and labels:
HIV-RT = molecular target: T1, HIV-RT (Human immunodeficiency virus type 1 group M subtype B, UniProt P04585); experiment: Checkerboard combination of lavendamycin analogs with AZT-triphosphate in HIV-RT enzyme assay (Chou and Talalay); format: biochemical
T1 construct: 1 unit/mL of HIV-RT (Worthington Biochemical Corp., Freehold, N.J.); purchased Worthington Biochemical Corp., Freehold, N.J
Experimental: The results were analyzed by the method of Chou and Talalay based on the median-effect principle and represented by combination indices (CI) determined for each of the two drug combinations (e.g., see: Chou, T. C.; Talalay, P. “Quantitative Analysis of Dose-Effect Relationships: The Combined Effects of Multiple Drugs or Enzyme Inhibitors,” Adv. Enzyme Regul., 1984, 22, 27-65; and Chou, J.; Chou, T. C. “Dose-Effect Analysis with Microcomputers: Quantitation of ED50, LD50, Synergism, Antagonism, Low-Dose Risk, Receptor-Ligand Binding and Enzyme Kinetics,” In: A computer Software for IBM-PC and Manual, Cambridge, UK, Elsevier-Biosoft, 1987). This method involves the plotting of dose-effect curves for each agent and for each of the different combinations of the agents. The slope of the median-effect plot, which signifies the shape of the dose-effect curve, and the x intercept of the plot, which signifies the potency of each compound alone and each combination, were then used for a computerized calculation of a combination index.
The assay procedure described below is adapted from Okada et al. (Okada, H.; Mukai, H.; Inouye, Y; Nakamura, S. “Biological Properties of Streptonigrin Derivatives II. Inhibition of Reverse Transcriptase Activity,” J. Antibiot., 1986, 39, 306-308). The lavendamycin analogs were initially dissolved in DMSO at a concentration of 1 mg/mL. Occasionally, mild sonication and heat were used to dissolve the less soluble compounds. The dissolved analogs were then serially diluted in distilled water to achieve concentrations in the final reaction mixture ranging from 0.5-15 μM. In addition to the lavendamycin analogs, the final reaction mixture contained 100 mM Tris-HCl (pH 8.0), 5 mM MgCl2, 5 mM dithiothreitol, 60 mM NaCl, 0.2 mM [^3H] thymidine triphosphate(5 μCi well), 4 μg/mL poly (rA)-oligo(dT)12-18 (Amersham Pharmacia Biotech, Piscataway, N.J.) and 1 unit/mL of HIV-RT (Worthington Biochemical Corp., Freehold, N.J.) in a total volume of 300 μL. For each assay, the reaction mixture containing 8× buffer, double distilled H2O, ^3HTTP, template-primer and HIV-RT was pre-mixed in a 15-mL sterile tube in quantities required for the particular experiment. After adding the enzyme, the reaction mixture was mixed and kept on ice. The inhibitors, either AZT(Moravek Biochemicals, Brea, Calif.), analogs or both were added to appropriate wells in a 24 well microtiter plate and ddH2O was added to each well to bring the volume of all test wells to 100 μL. Two hundred μL of the chilled reaction mixture was then added to each of the test wells, mixed, and incubated for 1 hr at 37° C. Several control wells with no inhibitors were included on each test plate. After stopping the reactions with 25 μL 0.1 M EDTA, triplicate samples of 15 μL from each test well were spotted on DE81 ion exchange filter paper squares (Whatman Paper, Maidstone, England). After drying, each filter was washed for 10 minutes three times with 5% TCA-NHPO4, three times with 0.6M NaCl-[…] Na Citrate, one time with ddH2O and one time with 95% ethanol. After drying the individual filter papers were added to 5 mL Scintiverse E (Fisher Scientific, Chicago, Ill.) scintillation fluid and the amount of 3H-TTP uptake measured as counts per minute on a Beckman liquid scintillation counter. […] The results were then analyzed using Calcusyn, a windows software program for dose effect analysis designed by T. -C. Chou and M. P. Hayball and published by Biosoft® (UK).

[1] = Cytotoxicity assay (MTT), normal murine spleen cells stimulated with concanavalin A; format: cell-based; conditions: normal mouse spleen stimulated with concanavalin A inhibited by 50%; read-out: Mean CC50 (Normal Mouse Spleen) ± SEM (no. of expts)
Experimental: Normal murine spleen cells were washed in HBSS, cultured at 2.5×10^6 or 5×10^6 cells per mL in RPMI 1640 (with Hepes) complete medium with 2 mM-L-glutamine, 1 mM sodium pyruvate, 0.05 mM β-mercaptoethanol, penicillin, streptomycin, and amphotericin B with 10% fetal calf serum and Concanavalin A (ConA) at 2.5 μg/mL in a 96-well microtiter plate. A range of diluted analogs were added to triplicate culture wells and the cells were incubated at 37° C. in 5% CO2. Wells containing cells, media and ConA were used as controls. Forty-eight hours post incubation, 20 μL of the vital dye MTT (3-[4,5-Dimethylthiazol-2-yl]-2,5-diphenyltetrazolium bromide; thiazolyl blue) at 5 mg/mL was added to each well and the cultures re-incubated for 4-6 hours. Following centrifugation, the supernatants were decanted and the stained cells were resuspended in 100 μL of 0.4% HCl acidified isopropanol. The optical densities of each well were read at 600 nm using a Cambridge Technologies series 700 microplate reader. The human lymphocytic cell lines CCRF-CEM (ATCC: HTB 176) and H-9 (ATCC: CCL 119) were subcultured from recently cultured cells grown in complete RPMI 1640 medium as described above but without the β-mercaptoethanol and ConA at 6.25×10^5 and 2×10^6 per mL in a 96 well culture plate. These cell numbers represented log phase and early stationary phase of the freshly cultured cells. As these cell lines rapidly reproduce without mitogenic stimulation, Con A was not used. A range of analogues or media alone was added in triplicate to the cultures and the cultures incubated, pulsed with MTT, harvested and their growth estimated as described above for the murine cultures. The CC50 or the concentration of drug which inhibited cell growth as estimated by MTT formazan production to 50% of that of untreated control cells was determined by linear interpolation for each lavendamycin analog.

CCCCCCCCOC(=O)c1cc2c([nH]c3ccccc32)c(-c2ccc3c(n2)C(=O)C(N)=CC3=O)n1 [Compound 20, Demethyllavendamycin n-Octyl Ester]
Combination index (HIV-RT): 0.68 and 0.66
Combination index (HIV-RT; analogue 0.25 μM + AZT 0.007 μM, Trial 1): 0.65
Combination index (HIV-RT; analogue 0.25 μM + AZT 0.007 μM, Trial 2): 0.61
Combination index (HIV-RT; analogue 0.25 μM + AZT 0.01 μM, Trial 1): 0.77
Combination index (HIV-RT; analogue 0.25 μM + AZT 0.01 μM, Trial 2): 0.77
Combination index (HIV-RT; analogue 0.25 μM + AZT 0.02 μM, Trial 1): 0.97
Combination index (HIV-RT; analogue 0.25 μM + AZT 0.02 μM, Trial 2): 1.00
Combination index (HIV-RT; analogue 0.5 μM + AZT 0.007 μM, Trial 1): 0.62
Combination index (HIV-RT; analogue 0.5 μM + AZT 0.007 μM, Trial 2): 0.61
Combination index (HIV-RT; analogue 0.5 μM + AZT 0.01 μM, Trial 1): 0.60
Combination index (HIV-RT; analogue 0.5 μM + AZT 0.01 μM, Trial 2): 0.61
Combination index (HIV-RT; analogue 0.5 μM + AZT 0.02 μM, Trial 1): 0.86
Combination index (HIV-RT; analogue 0.5 μM + AZT 0.02 μM, Trial 2): 0.88
Combination index (HIV-RT; analogue 0.75 μM + AZT 0.01 μM, Trial 1): 0.64
Combination index (HIV-RT; analogue 0.75 μM + AZT 0.01 μM, Trial 2): 0.63
Combination index (HIV-RT; analogue 0.75 μM + AZT 0.02 μM, Trial 1): 0.61
Combination index (HIV-RT; analogue 0.75 μM + AZT 0.02 μM, Trial 2): 0.64
Combination index (HIV-RT; analogue 1.5 μM + AZT 0.007 μM, Trial 1): 0.83
Combination index (HIV-RT; analogue 1.5 μM + AZT 0.007 μM, Trial 2): 0.83
Combination index (HIV-RT; analogue 1.5 μM + AZT 0.01 μM, Trial 1): 0.70
Combination index (HIV-RT; analogue 1.5 μM + AZT 0.01 μM, Trial 2): 0.69
Combination index (HIV-RT; analogue 1.5 μM + AZT 0.02 μM, Trial 1): 0.64
Combination index (HIV-RT; analogue 1.5 μM + AZT 0.02 μM, Trial 2): 0.63
CC50 at 48 h [1]: 48 ± 10 µM
